From patent US6444677B2, “5-membered heteroaryl substituted 1,4-dihydropyridine compounds as bradykinin antagonists” (Pfizer Inc., priority 1999, dated 2002)
Where a name gives a salt, the structure may show the parent alone.

In the case of `COC(=O)C1=C(CCc2nccs2)NC(CC(=O)N2CCC(C3(CNC(C)=O)CCCCC3)CC2)=C(C(=O)OC)C1c1c(Cl)cccc1Cl` (stereo not shown) [Example 44, Dimethyl 2-[2-[4-[1-[(acetylamino)methyl]cyclohexyl]-1-piperidinyl]-2-oxoethyl]-4-(2,6dichlorophenyl)-6-[2-(1,3-thiazol-2-yl)ethyl]-1,4dihydro-3,5-pyridinedicarboxylate], the melting point is reported as 114 to 116 °C (dec.). `COC(=O)C1=C(CCc2nccs2)NC(CC(=O)N2CCN(CC(C)(C)CNC(C)=O)CC2)=C(C(=O)OC)C1c1c(Cl)cccc1Cl` (stereo not shown) [Example 16, Dimethyl 2-[2-[4-[3-(acetylamino)-2,2-dimethylpropyl]-1-piperazinyl]-2-oxoethyl]-4-(2,6-dichlorophenyl)-6-[2-(1,3-thiazol-2-yl)ethyl]-1,4-dihydro-3,5 pyridinedicarboxylate] gave a melting point of 104 to 107 °C. In the case of `COC(=O)C1=C(CCc2nccs2)NC(CC(=O)N2CCN(CCC3(O)CCCCC3)CC2)=C(C(=O)OC)C1c1c(Cl)cccc1Cl` (stereo not shown) (as salt: HCl) [Example 28, Dimethyl 4-(2,6-dichlorophenyl)-2-[2-[4-[2-(1-hydroxycyclohexyl)ethyl]-1-piperazinyl]-2-oxoethyl]-6-[2-(1,3-thiazol-2-yl)ethyl]-1,4-dihydro-3,5-pyridinedicarboxylate], the melting point is reported as 188 to 190 °C (dec.). With `CCNCC1(C2CCN(C(=O)CC3=C(C(=O)OC)C(c4c(Cl)cccc4Cl)C(C(=O)OC)=C(CCc4nccs4)N3)CC2)CCCCC1` (stereo not shown) (as salt: HCl) [Example 45, Dimethyl 4-(2,6-dichlorophenyl)-2-[2-[4-[1-[(ethylamino)methyl]cyclohexyl]-1-piperidinyl]-2-oxoethyl]-6-[2-(1,3-thiazol-2-yl)ethyl]-1,4-dihydro-3,5-pyridinedicarboxylate] the melting point was 162 to 163 °C (dec.). For `CCN(CC)C1C2CCC1CC(N1CCN(C(=O)CC3=C(C(=O)OC)C(c4c(Cl)cccc4Cl)C(C(=O)OC)=C(CCc4nccs4)N3)CC1)C2` (stereo not shown) (as salt: HCl) [Example 12, Dimethyl 4-(2,6-dichlorophenyl)-2-[2-[4-(8-(diethylamino)bicyclo [3.2.1]oct-3-yl)-1-piperazinyl]-2-oxoethyl]-6-[2-(1,3-thiazol-2-yl)ethyl]-1,4-dihydro-3,5-pyridinedicarboxylate], the melting point was 200 to 205 °C (dec.). For `COC(=O)C1=C(CCc2nccs2)NC(CC(=O)N2CCN(CCC3(N4CCCC4=O)CCCC3)CC2)=C(C(=O)OC)C1c1c(Cl)cccc1Cl` (stereo not shown) (as salt: HCl) [Example 33, Dimethyl 4-(2,6-dichlorophenyl)-2-[2-oxo-2-[4-[2-[1-(2-oxo-1-pyrrolidinyl)cyclopentyl]ethyl]-1-piperazinyl]ethyl]-6-[2-(1,3-thiazol-2-yl)ethyl]-1,4-dihydro-3,5-pyridinedicarboxylate], the melting point was 175 to 180 °C (dec.). For `COC(=O)C1=C(CCc2nccs2)NC(CC(=O)N2CCN(CCCN3CCCC3=O)CC2)=C(C(=O)OC)C1c1c(Cl)cccc1Cl` (stereo not shown) (as salt: HCl) [Example 22, Dimethyl 4-(2,6-dichlorophenyl)-2-[2-oxo-2-[4-[3-(2-oxo-1-pyrrolidinyl)propyl]-1-piperazinyl]ethyl]-6-[2-(1,3-thiazol-2-yl)ethyl]-1,4-dihydro-3,5-pyridinedicarboxylate], the melting point was 185 to 190 °C (dec.). For `CCC(CC)(CCN1CCN(C(=O)CC2=C(C(=O)OC)C(c3c(Cl)cccc3Cl)C(C(=O)OC)=C(CCc3nccs3)N2)CC1)N1CCCC1=O` (stereo not shown) (as salt: HCl) [Example 39, Dimethyl 4-(2,6-dichlorophenyl)-2-[2-[4-[3-ethyl-3-(2-oxo-1-pyrrolidinyl)pentyl]-1-piperazinyl]-2-oxoethyl]-6-[2-(1,3-thiazol-2-yl)ethyl]-1,4-dihydro-3,5-pyridinedicarboxylate], the melting point was 151 to 155 °C (dec.). In the case of `COC(=O)C1=C(CCc2nccs2)NC(CC(=O)N2CCN(CC3(CN)CCCCC3)CC2)=C(C(=O)OC)C1c1c(Cl)cccc1Cl` (stereo not shown) (as salt: HCl) [Example 2, Dimethyl 2-[2-[4-[[1-(aminomethyl)cyclohexyl]methyl]-1-piperazinyl]-2-oxoethyl]-4-(2,6-dichlorophenyl)-6-[2-(1,3-thiazol-2-yl)ethyl]-1,4-dihydro-3,5-pyridinedicarboxylate], the melting point is reported as 206 to 210 °C (dec.). With `CCNCC1(CN2CCN(C(=O)CC3=C(C(=O)OC)C(c4c(Cl)cccc4Cl)C(C(=O)OC)=C(CCc4nccs4)N3)CC2)CCCCC1` (stereo not shown) (as salt: HCl) [Example 3, Dimethyl 4-(2,6-dichlorophenyl)-2-[2-[4-[[1-[(ethylamino)methyl]cyclohexyl]methyl]-1-piperazinyl]-2-oxoethyl]-6-[2-(1,3-thiazol-2-yl)ethyl]-1,4-dihydro-3,5-pyridinedicarboxylate] the melting point was 206 to 210 °C (dec.). In the case of `CCN(CC)C1(CCN2CCN(C(=O)CC3=C(C(=O)OC)C(c4c(Cl)cccc4Cl)C(C(=O)OC)=C(CCc4nccs4)N3)CC2)CCCC1` (stereo not shown) (as salt: HCl) [Example 34, Dimethyl 4-(2,6-dichlorophenyl)2-[2-[4-[2-[1-(diethylamino)cyclopentyl]ethyl]-1-piperazinyl]-2-oxoethyl]-6-[2-(1,3-thiazol-2-yl)ethyl]-1,4-dihydro-3,5-pyridinedicarboxylate], the melting point is reported as 195 to 200 °C (dec.). `COC(=O)C1=C(CCc2nccs2)NC(CC(=O)N2CCN(CC(C)(C)CN)CC2)=C(C(=O)OC)C1c1c(Cl)cccc1Cl` (stereo not shown) [Example 18, Dimethyl 2-[2-[4-(3-amino-2,2-dimethylpropyl)-1-piperazinyl]-2-oxoethyl]-4-(2,6-dichlorophenyl)-6-[2-(1,3-thiazol-2-yl)ethyl]-1,4-dihydro-3,5-pyridinedicarboxylate] gave a melting point of 158 to 162 °C. In the case of `COC(=O)C1=C(CCc2nccs2)NC(CC(=O)N2CCN(C3CCC(N4CCCC4=O)CC3)CC2)=C(C(=O)OC)C1c1c(Cl)cccc1Cl` (stereo not shown) (as salt: HCl) [Example 23, Dimethyl 4-(2,6-dichlorophenyl)-2-[2-oxo-2-[4-[4-(2-oxo-1-pyrrolidinyl)cyclohexyl]-1-piperazinyl]ethyl]-6-[2-(1,3-thiazol-2-yl)ethyl]-1,4-dihydro-3,5-pyridinedicarboxylate], the melting point is reported as 182 to 184 °C (dec.). With `COC(=O)C1=C(CCc2nccs2)NC(CC(=O)N2CCN(CCCN3CCC(C)C3=O)CC2)=C(C(=O)OC)C1c1c(Cl)cccc1Cl` (stereo not shown) [Example 30, Dimethyl 4-(2,6-dichlorophenyl)-2-[2-[4-[3-(3-methyl-2-oxo-1-pyrrolidinyl)propyl]-1-piperazinyl]-2-oxoethyl]-6-[2-(1,3-thiazol-2-yl)ethyl]-1,4-dihydro-3,5pyridinedicarboxylate] the melting point was 175 to 178 °C (dec.). Compound `CCNCC(C)(C)CN1CCN(C(=O)CC2=C(C(=O)OC)C(c3c(Cl)cccc3Cl)C(C(=O)OC)=C(CCc3nccs3)N2)CC1` (stereo not shown) [Example 19, Dimethyl 4-(2,6-dichlorophenyl)-2-[2-[4-[3-(ethylamino)-2,2-dimethylpropyl]-1-piperazinyl]-2-oxoethyl]-6-[2-(1,3-thiazol-2-yl)ethyl]-1,4-dihydro-3,5-pyridinedicarboxylate] has a melting point of 154 to 157 °C. In the case of `COC(=O)C1=C(CCc2nccs2)NC(CC(=O)N2CCN(CCC3(C(N)=O)CCCC3)CC2)=C(C(=O)OC)C1c1c(Cl)cccc1Cl` (stereo not shown) (as salt: HCl) [Example 43, Dimethyl 2-[2-[4-[2-[1-(aminocarbonyl)cyclopentyl]ethyl]-1-piperazinyl]-2-oxoethyl]-4-(2,6-dichlorophenyl)-6-[2-(1,3-thiazol-2-yl)ethyl]-1,4-dihydro-3,5-pyridinedicarboxylate], the melting point is reported as 158 to 163 °C (dec.). Work on `COC(=O)C1=C(CCc2nccs2)NC(CC(=O)N2CCN(CC(C)(C)CNS(C)(=O)=O)CC2)=C(C(=O)OC)C1c1c(Cl)cccc1Cl` (stereo not shown) [Example 13, Dimethyl 4-(2,6-dichlorophenyl)-2-[2-[4-[2,2-dimethyl-3-[(methylsulfonyl)amino]propyl]-1-piperazinyl]-2-oxoethyl]-6-[2-(1,3-thiazol-2-yl)ethyl]-1,4-dihydro-3,5-pyridinedicarboxylate] yielded a melting point of 132 to 136 °C. For `COC(=O)C1=C(CCc2nccs2)NC(CC(=O)N2CCN(CCCN3C(=O)CCC3C)CC2)=C(C(=O)OC)C1c1c(Cl)cccc1Cl` (stereo not shown) (as salt: HCl) [Example 29, Dimethyl 4-(2,6-dichlorophenyl)-2-[2-[4-[3-(2-methyl-5-oxo1-pyrrolidinyl)propyl]-1-piperazinyl]-2-oxoethyl]-6-[2-(1,3-thiazol-2-yl)ethyl]-1,4-dihydro-3,5-pyridinedicarboxylate], the melting point was 188 to 193 °C (dec.). `COC(=O)C1=C(CCc2nccs2)NC(CC(=O)N2CCN(CC3(CN)CCCC3)CC2)=C(C(=O)OC)C1c1c(Cl)cccc1Cl` (stereo not shown) [Example 17, Dimethyl 2-[2-[4-[[1-(aminomethyl)cyclopentyl]methyl]-1-piperazinyl]-2-oxoethyl]-4-(2,6-dichlorophenyl)-6-[2-(1,3-thiazol-2-yl)ethyl]-1,4-dihydro-3,5-pyridinedicarboxylate] gave a melting point of 161 to 164 °C. With `COC(=O)C1=C(CCc2nccs2)NC(CC(=O)N2CCN(CCCCN3CCOCC3)CC2)=C(C(=O)OC)C1c1c(Cl)cccc1Cl` (stereo not shown) (as salt: HCl) [Example 38, Dimethyl 4-(2,6-dichlorophenyl)-2-[2-[4-[4-(4-morpholinyl)butyl]-1-piperazinyl]-2-oxoethyl]-6-[2-(1,3-thiazol-2-yl)ethyl]-1,4-dihydro-3,5-pyridinedicarboxylate] the melting point was 169 to 177 °C (dec.). For `COC(=O)C1=C(CCc2nccs2)NC(CC(=O)N2CCN(CC(C)(C)C#N)CC2)=C(C(=O)OC)C1c1c(Cl)cccc1Cl` (stereo not shown) [Example 15, Dimethyl 2-[2-[4-(2-cyano-2-methylpropyl)-1-piperazinyl]-2-oxoethyl]-4-(2,6-dichlorophenyl)-6-[2-(1,3-thiazol-2-yl)ethyl]-1,4-dihydro-3,5-pyridinedicarboxylate], the melting point was 120 to 122 °C. In the case of `COC(=O)C1=C(CCc2nccs2)NC(CC(=O)N2CCN(CC3(C#N)CCCCC3)CC2)=C(C(=O)OC)C1c1c(Cl)cccc1Cl` (stereo not shown) (as salt: HCl) [Example 1, Dimethyl 2-[2-[4-[(1-cyanocyclohexyl)methyl]-1-piperazinyl]-2-oxoethyl]-4-(2,6-dichlorophenyl)-6-[2-(1,3-thiazol-2-yl)ethyl]-1,4-dihydro-3,5-pyridinedicarboxylate], the melting point is reported as 211 to 213 °C (dec.).
